Test results: US9408845B2, “Formulations containing pyridazine compounds” (Northwestern University, priority 2006, dated 2016)
Entries after “also recorded” stand apart in the source; their conditions may differ. Read-outs that look alike come from different tables or passages of the source.

How the values were obtained:
[1] = system: nitric oxide (NO) production in BV-2 microglial cells; experiment: LPS-stimulated accumulation of nitrite (NO metabolite) in BV-2 cells, Griess assay; type: cell-based, mouse; details: for IC50: read-out: NO, concentration required for 50% inhibition, LPS-stimulated BV-2 cells, 16 hrs; for inhibition of LPS-stimulated accumulation of the NO metabolite, nitrite / selectivity (inhibits IL-1β but not production of NO, iNOS, COX-2): BV-2 cells; for inhibition of LPS-stimulated accumulation of the NO metabolite, nitrite: concentrations up to 33 μM; for selectivity (inhibits IL-1β but not production of NO, iNOS, COX-2): same concentration range
Method: (§2) Glia cell-based assays of the concentration-dependent activity of the compounds were done as previously described (Hu T, Ralay Ranaivo et al., Current Alzheimer's Research 2005, 2:197-205; Mirzoeva. S, et al., J Med Chem 2002, 45:563-566; Ralay Ranaivo H, et al., 3 Neurosci 2006, 26:662-670). BV-2 mouse microglial cells were cultured for one day in multiwell plates and then treated in serum-free media for 16 his with either control buffer or the standard glial activating stimulus lipopolysaccharide (LPS, front Salmonella typhimurium; 100 ng/ml) in the presence of diluent or different concentrations of compounds. The accumulation of nitrite, the stable metabolite of nitric oxide (NO), was measured in V-2 conditioned media by the Griess assay as previously described (Hu W, Ralay Ranaivo et al., Current Alzheimer's Research 2005, 2:197-205; Mirzoeva S, et al, J Med Chem 2002, 45:563-566; Mirzoeva 5, et al., Brain Res 1999, 844:126434). Levels of IL-1β, TNFα, MCP-1 and IL-1β in cell lysates were measured by the Mesoscale Discovery system as per the manufacturer's instructions. Cell lysates were analyzed by Western blots as described (Mirzoeva 5, et al., J. Med Chem 2002, 45:563-566; Ralay Ranaivo H, et al J Neurosci 2006, 26:662-670) to determine the levels of inducible nitric oxide synthase (iNOS) and cyclooxygenase-2 (COX-2).

[2] = system: iNOS production in activated BV-2 cells; experiment: LPS-induced iNOS levels in activated BV-2 cells, Western blot; type: cell-based, mouse
Method: as §2

[3] = system: COX-2 production in activated BV-2 cells; experiment: LPS-induced COX-2 levels in activated BV-2 cells, Western blot; type: cell-based, mouse
Method: as §2

[4] = system: LPS-induced IL-1β production in BV-2 microglia cells; experiment: LPS-induced IL-1β production in BV-2 microglial cells; details: for inhibition of LPS-induced increases of IL-1β: BV2 microglial cell line, concentration dependence; for IC50: read-out: IL-1β, concentration required for 50% inhibition
Method: as §2

[5] = system: human Aβ infusion mouse model; experiment: Human Aβ infusion mouse model, hippocampal neuroinflammation and synaptic biochemical endpoints; type: in vivo; details: hippocampus, Aβ-infused mice, oral compound
Method: The study design and treatment paradigm for intracerebroventricular (ICV) infusion of human oligomerie Aβ1-42 into the mouse will be as described previously (Craft et al., Neurobiol Aging 25:1283-1292, 2004b), except that compound administration will be by mouth. Female C57Bl/6 mice (Harlan) weighing 20-25 g (3-4 months old) will be housed in a pathogen free facility under an approximate 12 h/12 h dark and light cycle and they will have access ad libitum to food and water.
(§1) Once per day treatment will begin at day 21 after start of Aβ ICV infusion and continue for 14 days. Beginning at day 50 after start of Aβ ICV infusion, the Y maze test of spontaneous alternation will be used to evaluate hippocampus dependent spatial learning as described previously (Craf et al., J Mol. Neurosci. 24:115-122, 2004a). Briefly, each mouse will be placed in the “start” arm and then released to choose one of the two other arms. The mouse will be blocked from exiting the chosen arm for 30 s then they will be placed back in the start arm and released again to choose one of the two other arms. If the second choice is different from the first one, the mouse will be scored as alternating. Mice will be tested for 10 days with one trial per day, and a mean percent alternation will be calculated for each mouse. […] The brain will be removed and longitudinally bisected as described previously (Craft et al., Neurobiolo Aging 25:12834292, 2004b). […] The hippocampus will be dissected from the left half of the brain and snap-frozen for subsequent biochemical evaluation.
S100B levels in hippocampal supernatants will be measured by a empium-based ELISA essentially as previously described (Van Eldik and Griffin, Biochem Biophys Acta 1223:398-403, 1994). Synaptophysin levels in hippocampal supernatants will be quantified by ELISA following the procedure described previously (Craft at al, 20041, supra). PSD-95 levels will be determined by Western blots using anti-PSD-95 antibodies (1:100,000 dilution; Upstate Biotechnology) as described (Craft et al., 2004b).
It was previously shown that Aβ-induced neuroinflammation is an early event associated with the onset and progression of pathophysiology, and can be suppressed by an inhibitor of glial activation. Female C57Bl/6 mice (Harlan) weighing […] (3-4 months old) were housed in a pathogen free facility under an approximate 12 h/12 h dark and light cycle and had access ad libitum to food and water. All animal procedures were approved by the Northwestern Animal Care and Use Committee.

[6] = system: human Aβ infusion mouse model; experiment: Human Aβ infusion mouse model, Y maze behavioral assay; type: in vivo; details: 1.25, 2.5, 5, and 10 mg/kg
Text: as §1

[7] = system: QT interval in Lead II electrocardiogram, anesthetized guinea pigs; experiment: Cardiac QT interval prolongation assay in anesthetized guinea pigs; details: 0.3 mg/kg iv, positive control
Method: The QT interval studies are performed by evaluating compounds for effects on QT interval in Lead II electrocardiograms measured in anesthetized guinea pigs (Hirohashi et al., 1991, Arzneim.-Forsch./Drug Res 41:9-18), one of the species recommended in the FDA white paper. Vehicle or compound is administered orally at 15 mg/kg (dosing volume of 10 ml/kg) to groups of male guinea pigs (weighing 330-350 g), with 5 animals per group. […] Heart rate, arterial blood pressure, and QT intervals are measured at baseline, and at 15, 30, 45, and 60 min after compound administration. Sotalol administered iv at 0.3 mg/kg serves as the positive control compound. The QT intervals are corrected for changes in heart rate using both Bazetes and Fridericia's formulae. Any increase in QT interval values over baseline values exceeding the upper 95% confidence limit of the mean changes at the corresponding time point in the vehicle-treated control group for two consecutive observation times indicates significant QT interval prolongation in the individually treated animals.
The QT intervals (QTc) were corrected for changes in heart rate using both Bazett's and Fridericia's formulae.
The test substance was dissolved in 2% Tween 80 and administered by oral administration. The substance was treated at 15 mg/kg with a dosing volume of 10 ml/kg. Duncan Hartley derived guinea pigs provided by MDS Pharma Services—Taiwan Ltd were used. Sotalol was obtained from Sigma, USA.
Groups of guinea pigs (weighing 330-350 g) with 5 animals each were employed. The animals were anesthetized with urethane (1500 mg/kg, IV bolus injection in a volume of 5 ml/kg) and breathed spontaneously. Lead II ECG was obtained with subdermal needle electrodes and ECG signal conditioner. Heart rate was measured with a pulse rate tachometer. The carotid artery was cannulated with a catheter that was connected to a pressure transducer and a pressure processor for measurements of arterial blood pressure (BP). […] QTC intervals were obtained by correction for heart rate changes using Bazett's and Fridericia's formulae. Increase in QTc interval in individual treated guinea pigs that lies outside the upper limit of 95% confidence limits (mean±SD) of the changes for the vehicle-treated control at corresponding time points for two consecutive times is considered significant.

[8] = LPS-stimulated BV-2 cells, 16 hrs

| Molecule | inhibition of LPS-stimulated accumulation of the NO metabolite, nitrite [1] | suppression of LPS-induced production of iNOS [2] | suppression of LPS-induced production of COX-2 [3] | inhibition of LPS-induced increases of IL-1β [4] | selectivity (inhibits IL-1β but not production of NO, iNOS, COX-2) [1] | further results |
| --- | --- | --- | --- | --- | --- | --- |
| 4-Methyl-6-phenyl-3-(4-pyridin-2-yl)piperazin-1-yl)pyridazine [Compound 8] | – | – | – | – | – | IC50 [1]: > 25 µM |
| 4-Methyl-6-phenyl-3-(4-pyridin-4-yl)piperazin-1-yl)pyridazine [Compound 9] | – | – | – | – | – | IC50 [1]: > 25 µM |
| 4-methyl-6-phenyl-3-(4-pyrimidin-2-ylpiperazin-1-yl)pyridazine [MW01-2-151SRM] | not inhibited | does not suppress | does not suppress | Concentration dependent inhibition | – | – |
| 4-pyridyl-6-phenyl-3-(4-pyrimidin-2-ylpiperazin-1-yl)pyridazine [MW01-6-189WH] | not inhibited | does not suppress | does not suppress | Concentration dependent inhibition | – | – |
| c1ccc(Cc2cc(-c3ccccc3)nnc2N2CCN(c3ncccn3)CC2)cc1 [Compound 2] | – | – | – | – | – | IC50 [1]: > 25 µM; IC50 [4, 8]: 5.3 ± 0.6 µM |
| CC(C)Cc1cc(-c2ccccc2)nnc1N1CCN(c2ncccn2)CC1 [Compound 4] | – | – | – | – | – | IC50 [1]: 22 ± 3 µM; IC50 [4, 8]: 6.1 ± 2.5 µM |
| Cc1cc(-c2ccccc2)nnc1N1CCN(c2cnccn2)CC1 [Compound 7] | – | – | – | – | – | IC50 [4, 8]: 46.1 ± 23.3 µM |
| Cc1cc(-c2ccccc2)nnc1N1CCN(C2CCCCC2)CC1 [Compound 10, 3-(4-cyclohexylpiperazin-1-yl)-4-methyl-6-phenylpyridazine] | – | – | – | – | – | IC50 ([4]; Mus musculus, BV-2, 16 h): 31.4 ± 4.9 µM |
| Cc1cc(-c2ccccc2)nnc1N1CCN(C)CC1 [Compound 11, 4-Methyl-3-(4-methylpiperazin-1-yl)-6-phenylpyridazine] | – | – | – | – | – | IC50 ([4]; Mus musculus, BV-2, 16 h): 48.9 ± 23.2 µM |
| Clc1cc(-c2ccccc2)nnc1N1CCN(c2ncccn2)CC1 [MW01-6-127WH, 4-chloro-6-phenyl-3-(4-pyrimidin-2-ylpiperazin-1-yl)pyridazine] | – | – | – | – | – | IC50 ([1]; Mus musculus): 19 ± 8 µM; IC50 ([4]; Mus musculus, BV-2, 16 h): 9.5 ± 4 µM |
| Cc1cc(-c2ccccc2)c(N2CCN(c3ncccn3)CC2)nn1 [MW01-7-057WH, 6-methyl-4-phenyl-3-(4-pyrimidin-2-ylpiperazin-1-yl)pyridazine] | not inhibited | does not suppress | does not suppress | Concentration dependent inhibition | selective | loss of PSD-95 [5]: did not block; loss of synaptophysin [5]: blocked; up-regulation of IL-1β [5]: did not block; up-regulation of S100B [5]: blocked; loss of PSD-95 ([5]; listed as MW01-2-057WH): no significant effect; prevention of Y-maze behavioral deficit [6]: significantly effective |
| c1ccc(-c2cc(-c3ccncc3)c(NCC3CC3)nn2)cc1 [MW01-7-084WH, N-(cyclopropylmethyl)-6-phenyl-4-(pyridin-4-yl)pyridazin-3-amine] | not inhibited | does not suppress | does not suppress | Concentration dependent inhibition | selective | loss of PSD-95 [5]: prevented; loss of synaptophysin [5]: not as effective as MW01-2-151SRM; up-regulation of IL-1β [5]: blocked; up-regulation of S100B [5]: blocked; prevention of Y-maze behavioral deficit [6]: trend toward preventing |
| CN1CCN(c2nnc(-c3ccccc3)cc2-c2ccncc2)CC1 [MW01-7-085WH, 3-(4-methylpiperazin-1-yl)-6-phenyl-4-(pyridin-4-yl)pyridazine] | not inhibited | does not suppress | does not suppress | Concentration dependent inhibition | selective | loss of PSD-95 [5]: prevented; loss of synaptophysin [5]: not as effective as MW01-2-151SRM; up-regulation of IL-1β [5]: blocked; up-regulation of S100B [5]: blocked; prevention of Y-maze behavioral deficit [6]: trend toward preventing |
| c1ccc(-c2cc(N3CCCCC3)c(N3CCN(c4ncccn4)CC3)nn2)cc1 [MW01-7-107WH, 2-(4-(6-phenyl-4-(piperidin-1-yl)pyridazin-3-yl)piperazin-1-yl)pyrimidine] | also inhibited | also inhibited | also inhibited | Concentration dependent inhibition | nonselective | – |
| c1ccc(-c2cc(-c3ccccc3)c(N3CCNCC3)nn2)cc1 [MW01-7-133WH, 4,6-diphenyl-3-piperazinylpyridazine] | not inhibited | does not suppress | does not suppress | Concentration dependent inhibition | selective | – |
| CC(C)NCC(O)c1ccc(NS(C)(=O)=O)cc1 (stereo not shown) [sotalol, reference compound] | – | – | – | – | – | QTc interval prolongation [7]: caused significant prolongation; also recorded: significant increase |
